Laboratory results reported in ChEMBL document CHEMBL4665844, “HDAC-Bax Multiple Ligands Enhance Bax-Dependent Apoptosis in HeLa Cells” (J Med Chem, 2020).
Values belong to the compound of their own block, whether it stands above or below them. The source made the active and inactive calls. No cut-off for these calls is given here.

Tests used:
Histone deacetylase = assay: Inhibition of HDAC in human HeLa nuclear extract using Boc-Lys(acetyl)-AMC or Boc-Lys (triflouroacetyl)-AMC as substrate preincubated for 5 mins followed by substrate addition and measured after 30 mins by fluorescence assay; format: subcellular, Nucleus
Apoptosis regulator BAX [1] = target: T1, Apoptosis regulator BAX (Homo sapiens, UniProt Q07812); assay: Binding affinity to recombinant human full length His-tagged BAX expressed in Escherichia coli BL21 (DE3) cells preincubated for 30 min followed by FITC-BIM addition and measured after 20 mins by fluorescence polarization assay
T1 sequence (Q07812 whole entry): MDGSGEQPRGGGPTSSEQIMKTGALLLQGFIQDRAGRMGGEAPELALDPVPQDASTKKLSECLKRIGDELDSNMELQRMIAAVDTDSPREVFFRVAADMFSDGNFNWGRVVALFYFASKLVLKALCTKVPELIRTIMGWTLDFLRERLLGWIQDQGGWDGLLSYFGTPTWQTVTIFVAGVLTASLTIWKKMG

HeLa [2] = assay: Induction of mitochondrial membrane potential loss in human HeLa cells at 1 to 3 uM after 24 hrs by TMRE staining based fluorescence assay; format: functional, cell-based; conditions: dose microM 1-3, time 24.0 hrs
HeLa [3] = assay: Up regulation of BAX protein in human HeLa cells at 0.3 to 3 uM after 6 to 12 hrs by Western blot analysis; format: functional, cell-based; conditions: dose microM 0.3-3, time hrs 6-12
HeLa [4] = assay: induction of apoptosis in siRNA-induced BAX knock down human HeLa cells at 0.3 to 3 uM after 48 hr by annexin V FITC and propidium iodide staining based flow cytometric analysis; format: functional, cell-based; conditions: dose microM 0.3-3, time 48.0 hrs
HeLa [5] = assay: Induction of apoptosis in human HeLA cells at 3 uM after 48 hr by annexin V FITC and propidium iodide staining based flow cytometric analysis; format: functional
[6] = target: Induced myeloid leukemia cell differentiation protein Mcl-1 (Homo sapiens, UniProt Q07820); assay: Binding affinity to full length His-tagged Mcl1 (unknown origin) preincubated for 30 min followed by 5-FAM Bid-BH3 addition and measured after 20 mins by fluorescence polarization assay
Sequence of Induced myeloid leukemia cell differentiation protein Mcl-1 (Q07820 whole entry): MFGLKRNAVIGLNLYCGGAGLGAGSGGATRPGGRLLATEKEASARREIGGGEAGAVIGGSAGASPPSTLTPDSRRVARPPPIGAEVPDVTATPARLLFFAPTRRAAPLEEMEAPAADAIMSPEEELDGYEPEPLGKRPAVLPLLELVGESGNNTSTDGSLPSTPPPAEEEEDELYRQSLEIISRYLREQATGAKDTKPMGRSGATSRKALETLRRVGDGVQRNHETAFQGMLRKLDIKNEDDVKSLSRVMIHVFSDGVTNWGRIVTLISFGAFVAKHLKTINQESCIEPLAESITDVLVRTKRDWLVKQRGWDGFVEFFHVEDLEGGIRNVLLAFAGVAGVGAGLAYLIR

Bcl-2-like protein 1 = Bcl-2-like protein 1 (Homo sapiens, UniProt Q07817); assay: Binding affinity to full length His-tagged Bcl-xl (unknown origin) preincubated for 30 min followed by 5-FAM Bid-BH3 addition and measured after 20 mins by fluorescence polarization assay
Sequence of Bcl-2-like protein 1 (Q07817 whole entry): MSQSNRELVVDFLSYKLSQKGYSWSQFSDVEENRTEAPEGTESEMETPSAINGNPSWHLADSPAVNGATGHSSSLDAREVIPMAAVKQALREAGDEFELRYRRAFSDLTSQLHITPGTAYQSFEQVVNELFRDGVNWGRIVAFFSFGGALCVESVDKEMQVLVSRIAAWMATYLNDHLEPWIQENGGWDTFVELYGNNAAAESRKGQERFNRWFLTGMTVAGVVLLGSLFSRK

[7] = target: Apoptosis regulator Bcl-2 (Homo sapiens, UniProt P10415); assay: Binding affinity to full length His-tagged Bcl2 (unknown origin) preincubated for 30 min followed by 5-FAM Bid-BH3 addition and measured after 20 mins by fluorescence polarization assay
Sequence of Apoptosis regulator Bcl-2 (P10415 whole entry): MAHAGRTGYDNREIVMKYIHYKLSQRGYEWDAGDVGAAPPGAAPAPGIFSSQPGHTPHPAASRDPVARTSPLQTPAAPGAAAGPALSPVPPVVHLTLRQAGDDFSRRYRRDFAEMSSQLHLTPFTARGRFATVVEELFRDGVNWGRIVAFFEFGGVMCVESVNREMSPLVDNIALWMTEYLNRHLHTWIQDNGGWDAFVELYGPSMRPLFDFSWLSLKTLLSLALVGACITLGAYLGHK

HeLa [8] = assay: Synergistic antiproliferative activity against human HeLa cells assessed as assessed as reduction in cell viability after 48 hrs in presence of SAHA by MTT assay; format: functional, cell-based
HeLa [9] = assay: Antiproliferative activity against human HeLa cells assessed as reduction in cell viability after 48 hrs by MTT assay; format: functional, cell-based
HeLa [10] = assay: Antiproliferative activity against siRNA-induced BAX knock down human HeLa cells after 48 hrs by MTT assay; format: functional, cell-based
L02 = assay: Cytotoxicity against human L02 cells assessed as reduction in cell viability after 48 hrs by MTT assay; format: ADME, cell-based; conditions: L02, 48 h
HeLa [11] = assay: Induction of mitochondrial membrane potential loss in human HeLa cells after 24 hrs by TMRE staining based fluorescence assay; format: functional, cell-based; conditions: dose microM 1-3, time 24.0 hrs
Histone deacetylase 8 = target: T2, Histone deacetylase 8 (Homo sapiens, UniProt Q9BY41); assay: Inhibition of HDAC8 (unknown origin) in using Boc-Lys(acetyl)-AMC or Boc-Lys (triflouroacetyl)-AMC as substrate preincubated for 5 mins followed by substrate addition and measured after 30 mins by fluorescence assay
T2 sequence (Q9BY41 whole entry): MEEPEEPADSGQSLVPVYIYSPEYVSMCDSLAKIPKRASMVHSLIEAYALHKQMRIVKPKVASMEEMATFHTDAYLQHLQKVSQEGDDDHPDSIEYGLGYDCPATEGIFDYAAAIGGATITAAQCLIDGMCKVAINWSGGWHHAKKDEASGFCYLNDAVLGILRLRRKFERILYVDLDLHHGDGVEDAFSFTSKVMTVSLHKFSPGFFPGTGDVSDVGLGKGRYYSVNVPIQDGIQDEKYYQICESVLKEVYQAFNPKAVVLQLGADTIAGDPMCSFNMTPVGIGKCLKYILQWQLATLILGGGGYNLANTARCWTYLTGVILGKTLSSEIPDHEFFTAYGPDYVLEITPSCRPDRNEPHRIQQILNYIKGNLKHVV

HeLa [12] = assay: Potency index, ratio of IC50 for BSTA1 to test compound IC50 for antiproliferation activity against human HeLa cells; format: functional
HeLa [13] = assay: induction of apoptosis in siRNA-induced BAX knock down human HeLa cells at 3 uM after 48 hr by annexin V FITC and propidium iodide staining based flow cytometric analysis; format: functional
HeLa [14] = assay: Induction of apoptosis in human HeLa cells assessed as cellular shrinkage at 1 uM after 6 to 36 hrs by fluorescence microscopic method; format: functional, cell-based; conditions: time hrs 6-36
Apoptosis regulator BAX [15] = target: T1, Apoptosis regulator BAX; assay: Activation of BAX in human HeLa cells assessed as confirmation activation at Bax6A7 after 6 to 12 hrs by immunoprecipitation assay; format: cell-based; conditions: filed as activator, dose microM 0.3-3, time hrs 6-12
Histone deacetylase 2 = Histone deacetylase 2 (Homo sapiens, UniProt Q92769); assay: Inhibition of HDAC2 (unknown origin) in using Boc-Lys(acetyl)-AMC or Boc-Lys (triflouroacetyl)-AMC as substrate preincubated for 5 mins followed by substrate addition and measured after 30 mins by fluorescence assay
Sequence of Histone deacetylase 2 (Q92769 whole entry): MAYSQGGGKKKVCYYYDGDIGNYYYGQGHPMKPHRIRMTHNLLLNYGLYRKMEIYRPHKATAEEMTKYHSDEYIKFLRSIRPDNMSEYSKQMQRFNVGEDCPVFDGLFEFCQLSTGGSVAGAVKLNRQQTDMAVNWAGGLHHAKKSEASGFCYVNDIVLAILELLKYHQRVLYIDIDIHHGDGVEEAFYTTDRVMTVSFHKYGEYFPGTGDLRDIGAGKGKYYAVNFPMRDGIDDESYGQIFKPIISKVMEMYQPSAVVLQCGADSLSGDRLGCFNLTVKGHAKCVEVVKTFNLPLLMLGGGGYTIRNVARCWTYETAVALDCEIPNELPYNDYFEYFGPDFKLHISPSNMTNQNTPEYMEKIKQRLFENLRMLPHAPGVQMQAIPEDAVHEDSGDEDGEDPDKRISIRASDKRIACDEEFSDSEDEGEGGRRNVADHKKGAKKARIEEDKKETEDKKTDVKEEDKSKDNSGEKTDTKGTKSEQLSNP

HeLa [16] = assay: Induction of apoptosis in human HeLa cells assessed as formation of apoptotic bodies at 1 uM after 6 to 36 hrs by fluorescence microscopic method; format: functional, cell-based; conditions: time hrs 6-36
HeLa [17] = assay: Induction of apoptosis in human HeLA cells at 0.3 to 1 uM after 48 hr by annexin V FITC and propidium iodide staining based flow cytometric analysis; format: functional, cell-based; conditions: dose microM 0.3-1, time 48.0 hrs
HeLa [18] = assay: Potency index, ratio of IC50 for SAHA to test compound IC50 for antiproliferation activity against human HeLa cells; format: functional
Histone deacetylase 1 = Histone deacetylase 1 (Homo sapiens, UniProt Q13547); assay: Inhibition of HDAC1 (unknown origin) in using Boc-Lys(acetyl)-AMC or Boc-Lys (triflouroacetyl)-AMC as substrate preincubated for 5 mins followed by substrate addition and measured after 30 mins by fluorescence assay
Sequence of Histone deacetylase 1 (Q13547 whole entry): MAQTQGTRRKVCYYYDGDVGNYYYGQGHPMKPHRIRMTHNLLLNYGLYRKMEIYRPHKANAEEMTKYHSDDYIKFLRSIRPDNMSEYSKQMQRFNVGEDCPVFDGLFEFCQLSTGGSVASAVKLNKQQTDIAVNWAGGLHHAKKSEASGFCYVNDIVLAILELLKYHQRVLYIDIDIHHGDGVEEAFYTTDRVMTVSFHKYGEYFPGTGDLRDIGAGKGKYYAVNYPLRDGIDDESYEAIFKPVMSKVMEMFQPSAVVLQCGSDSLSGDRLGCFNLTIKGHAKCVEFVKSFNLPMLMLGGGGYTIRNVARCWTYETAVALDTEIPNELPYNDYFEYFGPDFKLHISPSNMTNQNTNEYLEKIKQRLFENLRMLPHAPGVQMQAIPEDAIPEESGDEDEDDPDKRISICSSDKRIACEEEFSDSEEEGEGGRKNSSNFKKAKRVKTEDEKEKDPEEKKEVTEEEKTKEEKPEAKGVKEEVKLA

HeLa [19] = assay: Induction of apoptosis in human HeLa cells assessed as membrane blebbing at 1 uM after 6 to 36 hrs by fluorescence microscopic method; format: functional, cell-based; conditions: time hrs 6-36
HeLa [20] = assay: Induction of apoptosis in human HeLA cells at 1 uM after 48 hr by laser confocal microscopic based TUNEL assay; format: functional, cell-based

Structure (SMILES): O=C(/C=C/c1ccc(CNC(=O)c2ccc(-c3csc(N4N=C(c5ccccc5)/C(=N/Nc5nccs5)C4=O)n3)cc2)cc1)NO
IC50 (Histone deacetylase): 1341.5 nM
EC50 (Apoptosis regulator BAX [1]): 2220 nM

Structure (SMILES): O=C(CCCCCNC(=O)c1ccc(-c2csc(N3N=C(c4ccccc4)/C(=N/Nc4nccs4)C3=O)n2)cc1)NO
IC50 (Histone deacetylase): 87.5 nM
EC50 (Apoptosis regulator BAX [1]): 809 nM

Structure (SMILES): O=C(CCCCCCOc1ccc(-c2csc(N3N=C(c4ccccc4)/C(=N/Nc4nccs4)C3=O)n2)cc1)NO
IC50 (Histone deacetylase): 40.8 nM
EC50 (Apoptosis regulator BAX [1]): 856 nM

Structure (SMILES): O=C1/C(=N\Nc2nccs2)C(c2ccccc2)=NN1c1nc(-c2ccccc2)cs1
EC50 [6]: > 10000 nM
Activity (HeLa [2]): Active
EC50 (Bcl-2-like protein 1): > 10000 nM
EC50 [7]: > 10000 nM
IC50 (Histone deacetylase): > 10000 nM
IC50 (HeLa [8]): 810 nM
IC50 (HeLa [9]): 11500 nM
Activity (HeLa [4]): inactive
IC50 (HeLa [10]): > 20000 nM
Activity (HeLa [5]): 19.2%
IC50 (L02): 54200 nM

Structure (SMILES): O=C(CCCCNC(=O)c1ccc(-c2csc(N3N=C(c4ccccc4)/C(=N/Nc4nccs4)C3=O)n2)cc1)NO
IC50 (Histone deacetylase): 207.4 nM
EC50 (Apoptosis regulator BAX [1]): 719 nM

Structure (SMILES): O=C(O)c1ccc(-c2csc(N3N=C(c4ccccc4)/C(=N/Nc4nccs4)C3=O)n2)cc1
IC50 (Histone deacetylase): > 10000 nM
EC50 (Apoptosis regulator BAX [1]): 704 nM

Structure (SMILES): O=C(CCCCCCNC(=O)c1ccc(-c2csc(N3N=C(c4ccccc4)/C(=N/Nc4nccs4)C3=O)n2)cc1)NO
IC50 (Histone deacetylase): 98.8 nM
EC50 (Apoptosis regulator BAX [1]): 1140 nM

Structure (SMILES): O=C(CCCCOc1ccc(-c2csc(N3N=C(c4ccccc4)/C(=N/Nc4nccs4)C3=O)n2)cc1)NO
IC50 (Histone deacetylase): 118.5 nM
EC50 (Apoptosis regulator BAX [1]): 967 nM

Second part, led by results:

EC50 (Apoptosis regulator BAX [1]): > 10000 nM
Structure (SMILES): O=C(CCCCCCC(=O)Nc1ccccc1)NO [VORINOSTAT]
Activity (HeLa [2]): Active
Activity (HeLa [3]): Active
Activity (HeLa [4]): inactive
Activity (HeLa [5]): 47.1%

IC50 (Histone deacetylase): 577.4 nM
EC50 (Apoptosis regulator BAX [1]): 874 nM
Structure (SMILES): O=C(NO)c1ccc(-c2csc(N3N=C(c4ccccc4)/C(=N/Nc4nccs4)C3=O)n2)cc1

IC50 (Histone deacetylase): 75.8 nM
EC50 (Apoptosis regulator BAX [1]): 925 nM
Structure (SMILES): O=C(CCCCCOc1ccc(-c2csc(N3N=C(c4ccccc4)/C(=N/Nc4nccs4)C3=O)n2)cc1)NO

IC50 (Histone deacetylase): 85 nM
EC50 (Apoptosis regulator BAX [1]): 538 nM
Structure (SMILES): O=C(NO)c1ccc(COc2ccc(-c3csc(N4N=C(c5ccccc5)/C(=N/Nc5nccs5)C4=O)n3)cc2)cc1

IC50 (Histone deacetylase): 674.8 nM
EC50 (Apoptosis regulator BAX [1]): 725 nM
Structure (SMILES): O=C(CCCOc1ccc(-c2csc(N3N=C(c4ccccc4)/C(=N/Nc4nccs4)C3=O)n2)cc1)NO

IC50 (Histone deacetylase): 135.2 nM
EC50 (Apoptosis regulator BAX [1]): 532 nM
Structure (SMILES): O=C(CCCCCCCOc1ccc(-c2csc(N3N=C(c4ccccc4)/C(=N/Nc4nccs4)C3=O)n2)cc1)NO

IC50 (Histone deacetylase): 243.7 nM
EC50 (Apoptosis regulator BAX [1]): 992 nM
Structure (SMILES): O=C(/C=C/c1ccc(COc2ccc(-c3csc(N4N=C(c5ccccc5)/C(=N/Nc5nccs5)C4=O)n3)cc2)cc1)NO

IC50 (Histone deacetylase 8): 1090 nM
EC50 [6]: > 10000 nM
Activity (Apoptosis regulator BAX [15]): Dose-dependent effect
EC50 (Bcl-2-like protein 1): > 10000 nM
EC50 [7]: > 10000 nM
IC50 (Histone deacetylase): 62.8 nM
IC50 (Histone deacetylase 2): 198 nM
IC50 (HeLa [9]): 860 nM
EC50 (Apoptosis regulator BAX [1]): 393 nM
IC50 (HeLa [10]): 7550 nM
IC50 (Histone deacetylase 1): 66 nM
Structure (SMILES): O=C(NO)c1ccc(CNC(=O)c2ccc(-c3csc(N4N=C(c5ccccc5)/C(=N/Nc5nccs5)C4=O)n3)cc2)cc1
Activity (HeLa [11]): Dose-dependent effect
Ratio IC50 (HeLa [12]): 3
Activity (HeLa [13]): 14.8%
Activity (HeLa [14]): Active
Activity (HeLa [3]): Active
Activity (HeLa [16]): Active
Activity (HeLa [17]): Active
Ratio IC50 (HeLa [18]): 15
Activity (HeLa [5]): 60%
Activity (HeLa [19]): Active
Activity (HeLa [20]): Active
IC50 (L02): 65200 nM
